Common to all, as to type: cell-based
Data set [1] relates to human epithelial HeLa cells. The data set can be described thus: HeLa cytotoxicity assay (CellTiter-Glo). The following applies: pCC50. The essentials:
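HeLa cells (5,000/well) stimulated with 10 nM IFN-γ, exposed to 11-point 3-fold compound dilutions for 2 days at 37 °C; viability by CellTiter-Glo ATP luminescence. Normalized to cell-free (100% cytotoxicity) and stimulated-cell DMSO (0%) controls; four-parameter fit gives pCC50.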

Data set [2] deals with human peripheral blood mononuclear cells (PBMC). The data set is described as follows: PBMC cytotoxicity assay (CellTiter-Glo). To be noted: 2 days, pCC50. The essentials: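 Human PBMC (50,000 cells/well) stimulated with IFN-γ 100 ng/ml and LPS 50 ng/ml were exposed to 11-point 3-fold compound dilutions for 2 days at 37 °C, 5% CO2. Viability read by CellTiter-Glo ATP luminescence and normalized to no-cell and stimulated-DMSO controls. XC50 derived by four-parameter fit.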

The target in data set [3] is T1, indoleamine 2, 3-dioxygenase (IDO1) (Homo sapiens, UniProt P14902). The data set can be described thus: IDO1 HeLa RapidFire MS assay (kynurenine detection by mass spectrometry). More on the design: to induce the expression of indoleamine 2, 3-dioxygenase (IDO1). To be noted: HeLa cells, pIC50, read-out: IDO1_HELA_PXC50 (converted). Summed up: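 Compound potency reported as pIC50 from kynurenine/internal-standard ratio (RapidFire MS) in supernatant of IFN-γ-induced (10 nM) HeLa cells, 5,000 per well, after 2 days' treatment with 11-point dilutions. Cytotoxicity in the same format by luminescent ATP detection, reported as pCC50.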
T1 sequence (P14902 whole entry): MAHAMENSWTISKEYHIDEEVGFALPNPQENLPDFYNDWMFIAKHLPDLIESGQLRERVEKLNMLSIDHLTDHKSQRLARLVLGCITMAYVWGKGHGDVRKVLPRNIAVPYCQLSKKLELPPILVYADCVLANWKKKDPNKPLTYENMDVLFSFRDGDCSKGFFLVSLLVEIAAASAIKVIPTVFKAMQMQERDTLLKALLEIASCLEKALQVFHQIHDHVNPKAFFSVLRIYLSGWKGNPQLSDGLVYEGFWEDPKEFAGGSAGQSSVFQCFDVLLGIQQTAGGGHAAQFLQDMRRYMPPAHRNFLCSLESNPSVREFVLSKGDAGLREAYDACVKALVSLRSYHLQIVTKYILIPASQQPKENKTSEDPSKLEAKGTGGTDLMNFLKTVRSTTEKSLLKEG

Data set [4] concerns the target T1, indoleamine 2, 3-dioxygenase (IDO1). The data set can be described thus: IDO1 PBMC RapidFire MS assay (kynurenine detection by mass spectrometry). More on the design: to induce the expression of indoleamine 2, 3-dioxygenase (IDO1); host or cells: human PBMC stimulated with IFN-gamma and LPS. To be noted: human PBMC stimulated with IFN-γ and LPS, 2 days, pIC50, read-out: PBMC PXC50 (converted). Summed up:
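PBMCs (50,000 cells/well) stimulated with IFN-γ 100 ng/ml plus LPS 50 ng/ml, treated with 11-point 3-fold compound series for 2 days at 37° C. Supernatant kynurenine measured by RapidFire MS, normalised to internal standard; parallel cytotoxicity by CellTiter-Glo luminescence; curves fitted for XC50.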

Bounds are passed on as bounds.

Compound `CC(C)CN(c1ccc(C(C)(C)CC(=O)O)cc1Nc1ccc(Cl)cn1)C1CCOCC1` [Example 4, 3-(3-((5-chloropyridin-2-yl)amino)-4-(isobutyl(tetrahydro-2H-pyran-4-yl)amino)phenyl)-3-methylbutanoic Acid] displayed an HELA_IDO1_TOX_PXC50 in data set [1] of under 5. For the same compound, the “PBMC TOX PXC50” value in data set [2] was under 5. Moreover, the IC50 in data set [3] was 6.31 nM; in data set [4] it was 3.98 nM.

For `COCCc1nnc(Nc2cc([C@H](C)CC(=O)O)ccc2N(CC(C)C)C2CCCCC2)[nH]1` [example 214, (3R)-3-{4-[cyclohexyl(2-methylpropyl)amino]-3-{[5-(2-methoxyethyl)-4H-1,2,4-triazol-3-yl]amino}phenyl}butanoic acid], in data set [1], the HELA_IDO1_TOX_PXC50 is under 5. In addition, in data set [2], the “PBMC TOX PXC50” value is under 5. The IC50 in data set [3] and in data set [4] was 12.6 nM throughout.

The compound `CC(C)CN(CC(C)C)c1ccc(-c2ccccc2C(=O)O)cc1Nc1nc(Cl)ns1` [example 294, 4′-[bis(2-methylpropyl)amino]-3′-[(3-chloro-1,2,4-thiadiazol-5-yl)amino]-[1,1′-biphenyl]-2-carboxylic acid] returned an HELA_IDO1_TOX_PXC50 in data set [1] of under 5. The “PBMC TOX PXC50” value in data set [2] was under 5. In addition, the IC50 in data set [3] was 39.8 nM; in data set [4], 20 nM.

`CC(C)CN(c1ccc([C@H](C)CC(=O)O)cc1Nc1nc(C2CC2)cs1)C1CCOCC1` [example 211, (3R)-3-{3-[(4-cyclopropyl-1,3-thiazol-2-yl)amino]-4-[(2-methylpropyl)(oxan-4-yl)amino]phenyl}butanoic acid] returned an HELA_IDO1_TOX_PXC50 in data set [1] of under 5. The “PBMC TOX PXC50” value in data set [2] is under 5. Further, the IC50 in data set [3] is 25.1 nM; in data set [4], 20 nM.

Regarding `CC(C)CN(c1ccc(C(C)CC(=O)O)cc1NC1=NC(=O)[C@@H](C)N1)C1CCCCC1` (stereo partly drawn) [example 163, 3-{4-[cyclohexyl(2-methylpropyl)amino]-3-{[(5R)-5-methyl-4-oxo-4,5-dihydro-1H-imidazol-2-yl]amino}phenyl}butanoic acid], in data set [1], the HELA_IDO1_TOX_PXC50 is under 5. In addition, the “PBMC TOX PXC50” value in data set [2] is on record as under 5. The figures for the IC50 in data set [3] and in data set [4] were 2000 nM and 3160 nM, respectively.

In turn, `CC(C)CN(c1cc(F)c([C@H](C)CC(=O)O)cc1Nc1ccc(Cl)nc1)C1CCOCC1` [Example 37, (R)-3-(5-((6-chloropyridin-3-yl)amino)-2-fluoro-4-(isobutyl(tetrahydro-2H-pyran-4-yl)amino)phenyl)butanoic Acid] displayed an HELA_IDO1_TOX_PXC50 in data set [1] of under 5. Besides, the “PBMC TOX PXC50” value in data set [2] is listed as under 5. Moreover, the IC50 in data set [3] was 5.01 nM; in data set [4], 1.26 nM.

In data set [1], `CC(C)CN(c1ccc(-c2ccccc2C(=O)O)cc1Nc1nc(C(F)(F)F)ns1)C1CCOCC1` [Example 103, 4′-(isobutyl(tetrahydro-2H-pyran-4-yl)amino)-3′-((3-(trifluoromethyl)-1,2,4-thiadiazol-5-yl)amino)-[1,1′-biphenyl]-2-carboxylic Acid] yielded an HELA_IDO1_TOX_PXC50 of under 5. The “PBMC TOX PXC50” value in data set [2] is under 5. For the same compound, the IC50 is 3.16 nM in data set [3] and 1.58 nM in data set [4].

For `CC(C)CN(c1ccc([C@H](C)CC(=O)O)cc1Nc1cnc(Cl)cn1)[C@H]1CC[C@H](O)CC1` [Example 45, (R)-3-(3-((5-chloropyrazin-2-yl)amino)-4-(((1r,4R)-4-hydroxycyclohexyl) (isobutyl)amino)phenyl)butanoic Acid], the HELA_IDO1_TOX_PXC50 in data set [1] was under 5. Further, the “PBMC TOX PXC50” value in data set [2] is under 5. Also, the IC50 in data set [3] was 3.98 nM; in data set [4] it was 1.26 nM.

In data set [1], `CC(C)CN(c1ccc(C(C)OCC(=O)O)cc1Nc1ccc(C#N)cn1)C1CCCCC1` (centres unmarked) [Example 113, 2-(1-(3-((5-cyanopyridin-2-yl)amino)-4-(cyclohexyl(isobutyl)amino)phenyl)ethoxy)acetic Acid] had an HELA_IDO1_TOX_PXC50 of under 5. Besides, in data set [2], the “PBMC TOX PXC50” value is on record as under 5. Further, the IC50 in data set [3] was 10 nM; in data set [4] it was 5.01 nM.

`CC(C)CN(c1ccc([C@H](C)CC(=O)O)cc1Nc1ccc(Cl)nc1)C1CCCCC1` [Example 74, (R)-3-(3-((6-chloropyridin-3-yl)amino)-4-(cyclohexyl(isobutyl)amino)phenyl)butanoic Acid] registered an HELA_IDO1_TOX_PXC50 in data set [1] of under 5. Moreover, the “PBMC TOX PXC50” value in data set [2] is reported as 6.5. In addition, the IC50 in data set [3] is 3.98 nM; in data set [4], 0.794 nM.

Take `CC(C)CN(CC(C)C)c1ccc(C(C)CC(=O)O)cc1NC1CCCCC1` (centres unmarked) [example 157, 3-{4-[bis(2-methylpropyl)amino]-3-(cyclohexylamino)phe-nyl}butanoic acid]: in data set [1], the HELA_IDO1_TOX_PXC50 is recorded as under 5. For the same compound, in data set [2], the “PBMC TOX PXC50” value is on record as under 5. Further, the figures for the IC50 in data set [3] and in data set [4] were 1000 nM and 794 nM, respectively.

In data set [1], `CC(C)CN(c1ccc(C(C)CC(=O)O)cc1NCc1ncccn1)C1CCCCC1` (centres unmarked) [example 160, 3-{4-[cyclohexyl(2-methylpropyl)amino]-3-{[(pyrimidin-2-yl)methyl]amino}phenyl} butanoic acid] registered an HELA_IDO1_TOX_PXC50 of under 5. Besides, in data set [2], the “PBMC TOX PXC50” value is under 5. The IC50 in data set [3] and in data set [4] was over 10000 nM throughout.

Consider `CC(C)CN(CC(C)C)c1ccc(C(C)CC(=O)O)cc1Nc1nc(-c2ccccc2)ns1` (centres unmarked) [example 115, 3-{4-[bis(2-methylpropyl)amino]-3-[(3-phenyl-1,2,4-thiadiazol-5-yl)amino]phenyl}butanoic acid], for which, in data set [1], the HELA_IDO1_TOX_PXC50 was under 4.3. Besides, in data set [2], the “PBMC TOX PXC50” value was 4.9. In addition, the results for the IC50 in data set [3] and in data set [4] were 3160 nM and 2000 nM, respectively.

For the compound `CC[C@H](CC(=O)O)c1ccc(N(CC(C)C)C2CCCCC2)c(Nc2nc(Cl)ns2)c1` [Example 42], the HELA_IDO1_TOX_PXC50 in data set [1] is under 5. In addition, the “PBMC TOX PXC50” value in data set [2] is under 5. Also, the IC50 in data set [3] was 5.01 nM; in data set [4], 0.501 nM.

Turning to `CC(C)CN(c1ccc([C@H](C)CC(=O)O)cc1Nc1ccc(Cl)cn1)C1CCCCC1` [Example 75, (R)-3-(3-((5-chloropyridin-2-yl)amino)-4-(cyclohexyl(isobutyl)amino)phenyl)butanoic Acid], in data set [1], the HELA_IDO1_TOX_PXC50 is reported as under 5. Moreover, the “PBMC TOX PXC50” value in data set [2] is listed as under 5. Moreover, the values for the IC50 in data set [3] and in data set [4] were 3.16 nM and 1.58 nM, respectively.

In turn, `CC(C)CN(CC(C)C)c1ccc(-c2ccccc2C(=O)O)cc1Nc1nc2ccccc2[nH]1` [example 297, 3′-[(1H-1,3-benzodiazol-2-yl)amino]-4′-[bis(2-methylpropyl)amino]-[1,1′-biphenyl]-2-carboxylic acid] showed an HELA_IDO1_TOX_PXC50 in data set [1] of under 5. The “PBMC TOX PXC50” value in data set [2] is under 5. The IC50 in data set [3] was 50.1 nM; in data set [4], 20 nM.

Turning to `CC(C)CN(c1ccc([C@H](C)CC(=O)O)cc1Nc1ccc(Cl)nc1)[C@H]1CC[C@H](O)CC1` [Example 49, (R)-3-(3-((6-chloropyridin-3-yl)amino)-4-(((1r,4R)-4-hydroxycyclohexyl) (isobutyl)amino)phenyl)butanoic Acid], in data set [1], the HELA_IDO1_TOX_PXC50 is given as under 5. For the same compound, the “PBMC TOX PXC50” value in data set [2] was under 5. Moreover, the IC50 in data set [3] is 6.31 nM; in data set [4], 2 nM.

Compound `CC(C)CN(c1ccc([C@H](C)Cc2nnn[nH]2)cc1Nc1nc(C(F)(F)F)ns1)C1CCCCC1` [Example 101, (R)-4-(1-(1H-tetrazol-5-yl)propan-2-yl)-N^1-cyclohexyl-N^1-isobutyl-N^2-(3-(trifluoromethyl)-1,2,4-thiadiazol-5-yl)benzene-1,2-diamine] showed an HELA_IDO1_TOX_PXC50 in data set [1] of under 5. The “PBMC TOX PXC50” value in data set [2] is on record as under 5. The IC50 in data set [3] was 2.51 nM; in data set [4], 1.58 nM.

In the case of `COCc1ccc(Nc2cc([C@H](C)CC(=O)O)ccc2N(CC(C)C)C2CCOCC2)cn1` [Example 31, (R)-3-(4-(isobutyl(tetrahydro-2H-pyran-4-yl)amino)-3-((6-(methoxymethyl)pyridin-3-yl)amino)phenyl)butanoic Acid], the HELA_IDO1_TOX_PXC50 in data set [1] is 5. In data set [2], the “PBMC TOX PXC50” value is listed as under 5. In addition, the IC50 is 20 nM in data set [3] and 10 nM in data set [4].

Turning to `CC(C)CN(c1ccc([C@H](C)CC(=O)O)cc1Nc1nnc(C(N)=O)s1)C1CCCCC1` [Example 81, (R)-3-(3-((5-Carbamoyl-1,3,4-thiadiazol-2-yl)amino)-4-(cyclohexyl(isobutyl)amino)phenyl)butanoic], the HELA_IDO1_TOX_PXC50 in data set [1] is reported as under 5. Further, the “PBMC TOX PXC50” value in data set [2] is on record as under 5. Also, the results for the IC50 in data set [3] and in data set [4] were 7.94 nM and 3.98 nM, respectively.
